# Source: patent US11045419B2, “Pharmaceutical preparation of carbohydrates for therapeutic use” (Glycomine, Inc., priority 2013, dated 2021)
# Tested on: CDG-Ia fibroblasts
# Assay: LLO oligosaccharide distribution in fibroblasts by normal phase chromatography
# Assay type: cell-based, human
# Details: low glucose DMEM, 300 μM treatment, peak area normalized to protein content
# Procedure: Cellular internalization into the cytosol and subsequent integration of the M1P-liposomes (as prepared in Example 1), was assessed in vitro using primary human dermal fibroblasts derived from patients affected with CDG-Ia disorder (CDG-Ia fibroblasts) and wild-type human dermal fibroblasts. For evaluation of the ability of the M1P-liposomes to correct protein glycosylation defects, M1P-liposomes were delivered to CDG Type I primary fibroblasts derived from patients affected with CDG-Ia disorder. The ability to drive glycosylation forward was evaluated by comparing glycoprotein N-glycan structure before and after treatment. Such comparison required N-glycan analysis using normal phase chromatography. By utilizing endocytotic pathways, M1P-liposomes can enter the cell interior and release their cargo into the cytosol. Due to the ability to deliver a non-modified mannose-1-phosphate into the cytosol, analysis was performed on the assembly of LLO oligosaccharides in wild-type fibroblasts and fibroblasts derived from a CDG-Ia patient ([…] structures were isolated from the wild-type fibroblasts (having 100% PMM activity) as well as from the CDG-Ia fibroblasts (having 10% PMM activity) and the amounts of the LLO structures were compared using chromatographic methods. CDG-Ia dermal fibroblasts make a series of truncated lipid-linked oligosaccharide (LLO) species ranging in size from M2Gn2 to M5Gn2 with M2Gn2 and M3Gn2 being predominant. The M1P liposomes from Example 1 were tested in order to evaluate their capacity to normalize the distribution of various LLO oligosaccharides. CDG-Ia fibroblasts cultured in low glucose DMEM media were incubated with 300 μM of bare M1P (M1P) and 300 μM of the M1P-liposomes (M1PL). After treatment, cells were harvested and LLO oligosaccharides were recovered, hydrolyzed, modified with fluorophore, and analyzed by normal phase chromatography as described by Gao et al. (Methods in Enzymology, 2006, 415, 3-20) and Bones et al. (Anal. Chem, 2011, 83 (13), 5344-52). The peak area of each LLO was normalized to protein content prior to calculation of percentage abundance.
structure (smiles),measurement,value
"O=P(O)(O)OC1O[C@H](CO)[C@@H](O)[C@H](O)[C@@H]1O (stereo partly shown) [M1P, mannose-1-phosphate]",M2Gn2 LLO oligosaccharide distribution (percentage abundance),40%
same,M3Gn2 LLO oligosaccharide distribution (percentage abundance),24%
same,M4Gn2 LLO oligosaccharide distribution (percentage abundance),27%
same,M5Gn2 LLO oligosaccharide distribution (percentage abundance),8.9%
